Measurements: patent US11779567B2, “Method for optimizing 5-hydroxytryptamine function in the brain for therapeutic purposes” (Evecxia Therapeutics, Inc., priority 2021, dated 2023)
“And” between values parts separate entries of the source, which are not always exact repeats. Identical values can stand only once. Like-named read-outs stand apart in the source and are kept apart here.

What was measured:
[1] = some solvents (Jacobsen et al, 2016a); cited from earlier work
[2] = Safety and tolerability of IV 5-HTP continuous infusion; assay type: in vivo, human
Experimental: Methods: Safety and tolerability of the IV 5-HTP continuous infusion were assessed during the 24 hr administration of IV 5-HTP infusion (see Example 5) or placebo and approximately 24 hr after end of the infusion. Safety and tolerability of the IV 5-HTP infusion were assessed by monitoring of adverse events (AEs), standard clinical safety laboratory tests, electrocardiograms (ECG), vital signs, and clinical scales of suicidality. The safety population included all subjects. Vital sign measurements included systolic blood pressure (mmHg), diastolic blood pressure (mmHg), heart rate (beats/min), respiratory rate (breaths/min), and oral temperature. Twelve-lead electrocardiogram measurements were performed in triplicate. The recorded parameters included heart rate (beats/min), PR (msec), QRS (msec), and QTcF (msec). Assessments were rated as normal, not clinically significant, or clinically significant. Clinical laboratory tests included a complete blood count, chemistry panel, coagulation panel, and thyroid stimulating hormone.
Statistics: Descriptive statistics (n, mean, SD, minimum, and maximum) for absolute values and changes from baseline were calculated.

[3] = Plasma 5-HTP pharmacokinetics of 24 h continuous IV 5-HTP infusion, Phase 1 study; assay type: in vivo, human
Experimental: Study Design. A Phase 1, randomized, double-blind, placebo-controlled, single ascending dose study was performed to evaluate the safety, tolerability and pharmacokinetics (PK) of 5-HTP solution for IV infusion when administered to healthy adults taking a selective serotonin reuptake inhibitor (SSRI), escitalopram, for 3 weeks. Study duration was 37±3 days. The total individual subject participation time was no more than 66 days including screening, dosing, and follow-up phases. The IV infusion duration was 24 h, dosing with 5-HTP solution for IV infusion (see Example 3, above) or placebo (0.9% saline).
Subjects. A total of 39 healthy male and female subjects were randomized across 5 cohorts, each with 8 subjects (6 active:2 placebo) per cohort except for Cohort 5 (5 active:2 placebo). For each cohort, first 2 sentinel subjects received IV 5-HTP (N=1) or placebo (N=1) prior to dosing of the remaining 5 or 6 subjects.
IV infusion. 5-HTP solution for IV infusion or placebo was administered IV at a constant rate or ramped rate of infusion over 24 hr.
Constant rate infusion. 5-HTP solution for IV infusion was administered at constant infusion rates of 1 mg/kg/24 hr in Cohort 1 and 3 mg/kg/24 hr in Cohort 2. The infusion rate was 41.67 ml/h.
Ramp rate infusion. To gradually elevate 5-HTP plasma levels, 5-HTP solution for IV infusion was administered at a ramp rate of infusion for Cohorts 3, Cohort 4, and Cohort 5, at average 5-HTP infusion rates of 3 mg/kg/24 hr, 2 mg/kg/24 hr and 1 mg/kg/24 hr, respectively. The infusion volume rates were 13.89 ml/hr at T=0-4 hr; 27.78 ml/hr at T=4-8 hr; 41.67 ml/hr at T=8-12 hr; and 55.55 ml/hr at T=12-24 hr.
Bioanalysis. Plasma samples for 5-HTP analysis were collected and stored at −80° C. Plasma samples for escitalopram analysis were collected and stored at −80° C. Plasma 5-HTP levels and plasma escitalopram levels were measured using standard liquid chromatography with tandem mass spectrometry (LC-MS-MS) methods. For 5-HTP analysis, plasma samples were collected at T=0, 1, 2, 3, 4, 5, 6, 8, 10, 12, 14, 22, 24, 26, 28, 30, 32, 36, and 48 hr. For escitalopram analysis, plasma samples were collected on Day 7, Day 21 (pre-infusion), Day 22 (end of infusion), and Day 23 (24 hr after end of infusion). Plasma escitalopram levels were averaged across days 21-23, during the time-period when subjects were admitted to the clinic and received 5-HTP solution for IV infusion or placebo.
Statistical analysis. Subjects receiving placebo across the 5 cohorts (N=2 per cohort) were pooled. Descriptive statistics were calculated for each quantitative variable within each treatment group and placebo (n, mean, standard deviation, median, minimum, maximum).
PK analysis of plasma 5-HTP. The PK population included subjects who received 5-HTP solution for IV infusion and completed the 24 h infusion. PK parameters were computed for each Cohort/dose/infusion paradigm. Placebo data from all cohorts were pooled.

[4] = 2 mg/kg/24 hr ramp rate infusion
[5] = ramp flow rate, 1 mg/kg/24 hr, subjects with event/subjects
[6] = both sexes, human, plasma, intravenous, 1 mg/kg, individual subjects, Constant rate 1 mg/kg/24 hr
[7] = both sexes, human, plasma, intravenous, 1 mg/kg, individual subjects, Ramp rate 1 mg/kg/24 hr
[8] = both sexes, human, plasma, intravenous, 2 mg/kg, individual subjects, Ramp rate 2 mg/kg/24 hr
[9] = both sexes, human, plasma, intravenous, 3 mg/kg, individual subjects, Constant rate 3 mg/kg/24 hr
[10] = both sexes, human, plasma, intravenous, 3 mg/kg, individual subjects, Ramp rate 3 mg/kg/24 hr
[11] = both sexes, human, plasma, iv, 1 mg/kg, Cohort 1, constant rate 1 mg/kg/24 hr IV, healthy adults on escitalopram, mean, N=6
[12] = both sexes, human, plasma, iv, 1 mg/kg, Cohort 5, ramp rate 1 mg/kg/24 hr IV, healthy adults on escitalopram, mean, N=5
[13] = both sexes, human, plasma, iv, 2 mg/kg, Cohort 4, ramp rate 2 mg/kg/24 hr IV, healthy adults on escitalopram, mean, N=6
[14] = both sexes, human, plasma, iv, 3 mg/kg, Cohort 2, constant rate 3 mg/kg/24 hr IV, healthy adults on escitalopram, mean, N=4 completers
[15] = both sexes, human, plasma, iv, 3 mg/kg, Cohort 3, ramp rate 3 mg/kg/24 hr IV, healthy adults on escitalopram, mean, N=6
[16] = individual subjects, Constant rate 1 mg/kg/24 hr
[17] = individual subjects, Constant rate 3 mg/kg/24 hr
[18] = individual subjects, Ramp rate 1 mg/kg/24 hr
[19] = individual subjects, Ramp rate 2 mg/kg/24 hr
[20] = individual subjects, Ramp rate 3 mg/kg/24 hr

differences in CAve, AUCInf or AUCLast between constant rate and ramp rate infusion ([3]; 1 mg/kg/24 hr or 3 mg/kg/24 hr average infusion rates, p>0.05, unpaired t-test): no significant differences | CAve (0-24 h) ([3]; Cohort 1, constant rate 1 mg/kg/24 hr IV, healthy adults on escitalopram, mean, N=6): 94 ng/mL | initial 5-HTP plasma levels, T=1 h ([3]; Cohort 2, constant 3 mg/kg/24 hr, the 2 discontinued subjects): 304 ng/mL | CAve (0-24 h) ([3]; Cohort 2, constant rate 3 mg/kg/24 hr IV, healthy adults on escitalopram, mean, N=4 completers): 268 ng/mL | CAve (0-24 h) ([3]; Cohort 4, ramp rate 2 mg/kg/24 hr IV, healthy adults on escitalopram, mean, N=6): 160 ng/mL | CAve (0-24 h) ([3]; Cohort 5, ramp rate 1 mg/kg/24 hr IV, healthy adults on escitalopram, mean, N=5): 82 ng/mL | AUC(0-inf) [3, 6]: 2920 ng·h/mL | AUC(0-t) [3, 6]: 2830 ng·h/mL | CMax ([3]; both sexes, human, plasma, intravenous, 1 mg/kg, individual subjects, Constant rate 1 mg/kg/24 hr, read-out: CMax): 118 ng/mL | AUC(0-inf) [3, 7]: 2810 ng·h/mL | AUC(0-t) [3, 7]: 2770 ng·h/mL | CMax ([3]; both sexes, human, plasma, intravenous, 1 mg/kg, individual subjects, Ramp rate 1 mg/kg/24 hr, read-out: CMax): 179 ng/mL | AUC(0-inf) [3, 8]: 6650 ng·h/mL | AUC(0-t) [3, 8]: 6540 ng·h/mL | CMax ([3]; both sexes, human, plasma, intravenous, 2 mg/kg, individual subjects, Ramp rate 2 mg/kg/24 hr, read-out: CMax): 407 ng/mL | AUC(0-inf) [3, 9]: 8000 ng·h/mL | AUC(0-t) [3, 9]: 7960 ng·h/mL | CMax ([3]; both sexes, human, plasma, intravenous, 3 mg/kg, individual subjects, Constant rate 3 mg/kg/24 hr, read-out: CMax): 397 ng/mL | AUC(0-inf) [3, 10]: 11200 ng·h/mL | AUC(0-t) [3, 10]: 11100 ng·h/mL | CMax ([3]; both sexes, human, plasma, intravenous, 3 mg/kg, individual subjects, Ramp rate 3 mg/kg/24 hr, read-out: CMax): 613 ng/mL | AUC(0-inf) [3, 11]: 2970 ng·h/mL | AUC(0-t) [3, 11]: 2910 ng·h/mL | half-life [3, 11]: 3.71 h | CMax ([3]; both sexes, human, plasma, iv, 1 mg/kg, Cohort 1, constant rate 1 mg/kg/24 hr IV, healthy adults on escitalopram, mean, N=6, read-out: CMax): 141 ng/mL | AUC(0-inf) [3, 12]: 3290 ng·h/mL | AUC(0-t) [3, 12]: 3240 ng·h/mL | half-life [3, 12]: 4.52 h | CMax ([3]; both sexes, human, plasma, iv, 1 mg/kg, Cohort 5, ramp rate 1 mg/kg/24 hr IV, healthy adults on escitalopram, mean, N=5, read-out: CMax): 209 ng/mL | AUC(0-inf) [3, 13]: 6440 ng·h/mL | AUC(0-t) [3, 13]: 6330 ng·h/mL | half-life [3, 13]: 4.4 h | CMax ([3]; both sexes, human, plasma, iv, 2 mg/kg, Cohort 4, ramp rate 2 mg/kg/24 hr IV, healthy adults on escitalopram, mean, N=6, read-out: CMax): 395 ng/mL | AUC(0-inf) [3, 14]: 8850 ng·h/mL | AUC(0-t) [3, 14]: 8800 ng·h/mL | half-life [3, 14]: 4.84 h | CMax ([3]; both sexes, human, plasma, iv, 3 mg/kg, Cohort 2, constant rate 3 mg/kg/24 hr IV, healthy adults on escitalopram, mean, N=4 completers, read-out: CMax): 427 ng/mL | AUC(0-inf) [3, 15]: 11000 ng·h/mL | AUC(0-t) [3, 15]: 10900 ng·h/mL | half-life [3, 15]: 5.1 h | CMax ([3]; both sexes, human, plasma, iv, 3 mg/kg, Cohort 3, ramp rate 3 mg/kg/24 hr IV, healthy adults on escitalopram, mean, N=6, read-out: CMax): ~592 ng/mL | time to average steady state plasma levels after start of infusion ([3]; constant 5-HTP infusion rates 1 mg/kg/24 hr and 3 mg/kg/24 hr): approximately 4 h | concentration at 1 h ([3]; human, plasma, intravenous, 3 mg/kg/24 hr, Cohort 2, constant 3 mg/kg/24 hr, the 2 discontinued subjects, read-out: initial 5-HTP plasma levels, T=1 h): 248 ng/mL | CMax [3, 17]: 480 ng/mL and 320 ng/mL and 512 ng/mL | time to average steady state plasma levels ([3]; variable (ramp) infusion, average rate 1-, 2-, and 3 mg/kg/24 hr): 14 to 24 h
Structure (SMILES): N[C@@H](Cc1c[nH]c2ccc(O)cc12)C(=O)O [5-HTP, 5-hydroxytryptophan]
soluble in some solvents [1]: up to 100 mg/ml | subjects in whom AEs occurred ([2]; 1 mg/kg/24 hr, ramp flow rate infusion): 2 subjects | mild AEs: chills, subjects with event [2, 4]: 1 and 1/6 | mild AEs: dizziness, subjects with event [2, 4]: 1 and 1/6 | 5-HTP plasma exposure with which incidence of AEs was more commonly associated ([2]; all cohorts): > 100 ng/mL | severity of all AEs ([2]; all cohorts): mild-to-moderate | safety findings in clinical safety laboratory tests, vital signs, 12-lead electrocardiograms ([2]; all cohorts, 24 hr IV 5-HTP infusion): no safety findings | serious or severe AEs related to the IV 5-HTP infusion ([2]; any subjects, all cohorts): No serious or severe AEs | AEs ([2]; constant flow rate, 1 mg/kg/24 hr group): no AEs | concentration at 1 h ([2]; human, plasma, intravenous, constant rate 3 mg/kg/24 hr, read-out: plasma 5-HTP levels within 1 h in the subjects who discontinued): 250 to 300 ng/mL | 5-HTP plasma levels associated with manifestation of AEs ([2]; ramp flow rate 1 mg/kg/24 hr, at highest flow rate 55.55 ml/h): 112 to 266 ng/mL | mild AEs: nausea [2, 5]: 1/5 | mild AEs: vomiting [2, 5]: 1/5 | moderate AEs: nausea [2, 5]: 1/5 | moderate AEs: vomiting [2, 5]: 1/5 | AUCInf [3, 16]: 2551.36 ng·h/mL and 2930.09 ng·h/mL and 3832.68 ng·h/mL and 2234.41 ng·h/mL and 3351.07 ng·h/mL | AUCLast [3, 16]: 2530.16 ng·h/mL and 2885.80 ng·h/mL and 3762.18 ng·h/mL and 2185.63 ng·h/mL and 3291.36 ng·h/mL | CMax [3, 16]: 112 ng/mL and 143 ng/mL and 189 ng/mL and 114 ng/mL and 169 ng/mL | AUCInf [3, 17]: 9781.13 ng·h/mL and 7039.23 ng·h/mL and 10597.49 ng·h/mL | AUCLast [3, 17]: 9690.71 ng·h/mL and 6999.32 ng·h/mL and 10537.75 ng·h/mL | AUCInf [3, 18]: 4399.83 ng·h/mL and 3862.84 ng·h/mL and 2807.47 ng·h/mL and 2572.27 ng·h/mL | AUCLast [3, 18]: 4345.10 ng·h/mL and 3799.02 ng·h/mL and 2767.78 ng·h/mL and 2505.93 ng·h/mL | CMax [3, 18]: 266 ng/mL and 247 ng/mL and 192 ng/mL and 160 ng/mL | AUCInf [3, 19]: 6254.18 ng·h/mL and 6207.11 ng·h/mL and 6316.80 ng·h/mL and 6043.68 ng·h/mL and 7134.20 ng·h/mL | AUCLast [3, 19]: 6191.76 ng·h/mL and 6095.21 ng·h/mL and 6245.16 ng·h/mL and 5955.75 ng·h/mL and 6968.01 ng·h/mL | CMax [3, 19]: 373 ng/mL and 352 ng/mL and 385 ng/mL and 414 ng/mL and 437 ng/mL | AUCInf [3, 20]: 11393.96 ng·h/mL and 13786.66 ng·h/mL and 10786.90 ng·h/mL and 8427.71 ng·h/mL and 10152.61 ng·h/mL | AUCLast [3, 20]: 11310.89 ng·h/mL and 13698.51 ng·h/mL and 10738.77 ng·h/mL and 8350.62 ng·h/mL and 10098.28 ng·h/mL | CMax [3, 20]: 660 ng/mL and 679 ng/mL and 644 ng/mL and 454 ng/mL and 502 ng/mL
